Source: BindingDB's records for doi:10.1016/j.bmcl.2007.04.009 (Bristol-Myers Squibb, 2007)

biological target: T1, Fatty-acid amide hydrolase 1 (Homo sapiens, UniProt O00519); experiment: FAAH Inhibition Assay; conditions: pH 9; 22 °C
T1 sequence (O00519 whole entry): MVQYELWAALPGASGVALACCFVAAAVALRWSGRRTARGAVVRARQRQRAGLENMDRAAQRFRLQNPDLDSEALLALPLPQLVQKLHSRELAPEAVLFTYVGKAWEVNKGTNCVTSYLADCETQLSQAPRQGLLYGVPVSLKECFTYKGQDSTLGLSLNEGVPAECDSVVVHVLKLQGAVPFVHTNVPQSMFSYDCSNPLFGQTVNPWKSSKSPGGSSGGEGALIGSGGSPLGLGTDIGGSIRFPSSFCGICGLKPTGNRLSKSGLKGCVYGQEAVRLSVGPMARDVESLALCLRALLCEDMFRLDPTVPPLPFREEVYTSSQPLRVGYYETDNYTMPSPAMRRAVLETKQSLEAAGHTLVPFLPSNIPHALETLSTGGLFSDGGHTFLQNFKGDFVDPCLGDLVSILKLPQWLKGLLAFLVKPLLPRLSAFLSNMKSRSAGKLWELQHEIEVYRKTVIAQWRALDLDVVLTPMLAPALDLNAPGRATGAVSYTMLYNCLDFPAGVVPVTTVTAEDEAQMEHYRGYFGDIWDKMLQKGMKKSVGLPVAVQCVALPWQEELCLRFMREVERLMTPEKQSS
Protocol: FAAH Inhibition Assay [3H]Ethanolamine produced from [3H]AEA hydrolysis was used to calculate FAAH activity and was measured by scintillation counting of the aqueous phase after extraction of the incubation mixture. Data were expressed as the percentage of [3H]-ethanolamine formed versus vehicle, after subtraction of the background radioactivity determined in the presence of arachidonyl trifluoromethyl ketone (ATFMK), an inhibitor of FAAH. IC50 values were determined using a four-parameter logistic equation for dose-response curves.

Row | IC50 [nM] | SMILES
1 | 130 | CCOC(=O)C(C)CCCCCn1c(C)nc(-c2ccccc2)c1-c1ccccc1 (racemic) [D, L mixtures]
2 | > 100000 | CCOC(=O)C(CCCCCn1c(C)nc(-c2ccccc2)c1-c1ccccc1)C(C)C (racemic) [D, L mixtures]
3 | 9900 | CCOC(=O)C(CC)CCCCCn1c(C)nc(-c2ccccc2)c1-c1ccccc1 (centres undefined) [D, L mixtures]
4 | 31 | CCOC(=O)CCCCCCCn1c(CC)nc(-c2ccccc2)c1-c1ccccc1 [ethyl 8-(2-ethyl-4,5-diphenyl-1H-imidazol-1-yl)octanoate]
